Test [1] deals with MT4. Description: Inhibitory activity against 103N strain and 181C strain of HIV-I in MT-4 cell was determined. Format: functional, cell-based. To be noted: Homo sapiens.
Test [2] concerns Human immunodeficiency virus 1. Description: Inhibitory activity against 100I strain of HIV-I in MT-4 cell was determined. The test is classed as functional, organism-based. Conditions: Human immunodeficiency virus 1, MT4.
Test [3] concerns Human immunodeficiency virus 1. Description: Inhibitory activity against LAI strain of HIV-I in MT-4 cell was determined. The test is classed as functional, organism-based. Conditions: Human immunodeficiency virus 1, MT4.
In test [4] the test system is Human immunodeficiency virus 1. Kind of test: Inhibitory activity against 188L strain of HIV-1 in MT-4 cell was determined. To be noted: Human immunodeficiency virus 1, MT4. Format: functional, organism-based.
The subject of test [5] is MT4. Description: Inhibitory activity against 100I strain and 103N strain of HIV-I in MT-4 cell was determined. Format: functional, cell-based. Conditions: Homo sapiens.
Test [6] relates to Human immunodeficiency virus 1. Description: Inhibitory activity against 181C strain of HIV-I in MT-4 cell was determined. Format: functional, organism-based. To be noted: Human immunodeficiency virus 1, MT4.
In test [7] the test system is Human immunodeficiency virus 1. Description: Inhibitory activity against 103N strain of HIV-I in MT-4 cell was determined. The test is classed as functional, organism-based. To be noted: Human immunodeficiency virus 1, MT4.
Test [8] has as its system MT4. Kind of test: Inhibitory activity against LAI strain of HIV-I in MT-4 cell was determined; Not determined. Format: functional, cell-based. Conditions: Homo sapiens.

In ChEMBL document CHEMBL1133922, “Evolution of anti-HIV drug candidates. Part 2: Diaryltriazine (DATA) analogues” (Bioorg Med Chem Lett, 2001) one finds IC50 data, which are given here for 33 compounds.

In the case of `Cc1cc(C#N)cc(C)c1Oc1ncnc(Nc2ccc(C#N)cc2)n1`, the IC50 was 398 nM in the test with MT4 [1]; 1000 nM in test [2]; 4 nM in test [3]; 251 nM in test [4]; 3980 nM with MT4 [5]; 501 nM in test [6]. The same compound had a concentration for half-maximal inhibition (IC50) in test [7] of 20 nM.

As for `COc1nc(Cc2c(Cl)cccc2Cl)nc(Nc2ccc(C#N)cc2)n1`, the 50% inhibitory concentration (IC50) in test [2] is 1150 nM; in test [3], 12 nM; in test [4], 1550 nM; in test [6], 1450 nM; in test [7], 231 nM.

For `N#Cc1ccc(Nc2nc(N)nc(Cc3ccccc3Cl)n2)cc1`, the IC50 in test [2] was 2650 nM; in test [3], 130 nM; in test [4] it was 7370 nM; in test [6], 2570 nM; in test [7] it was 400 nM.

In the case of `Cc1cc(C#N)cc(C)c1Nc1ncnc(Nc2ccc(C#N)cc2)n1`, the IC50 turned out to be 126 nM in the test on MT4 [1]; 251 nM in test [2]; 1 nM in test [3]; 50 nM in test [4]; 2510 nM in the test with MT4 [5]; 50 nM in test [6]. Also, half-maximal inhibition in test [7] (IC50) was put at 8 nM.

`N#Cc1ccc(Nc2nc(N)nc(Oc3c(Cl)cc(Cl)cc3Cl)n2)cc1`: the concentration for half-maximal inhibition (IC50) worked out at 87 nM in test [2]; 2.4 nM in test [3]; 502 nM in test [4]; 62 nM in test [6]; 12 nM in test [7].

For `N#Cc1ccc(Nc2nc(N)nc(Cc3c(Cl)cc(Cl)cc3Cl)n2)cc1`, the IC50 was determined as 221 nM in test [2]; 1.4 nM in test [3]; 161 nM in test [4]; 6.2 nM in test [6]; 16 nM in test [7].

Consider `CN(C)CCOc1nc(Cc2c(Cl)cccc2Cl)nc(Nc2ccc(C#N)cc2)n1`, for which the IC50 came out at 1080 nM in test [2]; 5.5 nM in test [3]; 315 nM in test [4]; 1390 nM in test [6]; 37 nM in test [7].

In the case of `Cc1cc(Br)cc(C)c1Nc1ncnc(Nc2ccc(C#N)cc2)n1`, the 50% inhibitory concentration (IC50) came to 126 nM in the test with MT4 [1]; 79 nM in test [2]; 0.6 nM in test [3]; 63 nM in test [4]; 3160 nM with MT4 [5]; 16 nM in test [6]. Moreover, the half-inhibitory concentration (IC50) in test [7] amounted to 6 nM.

As to `N#Cc1ccc(Nc2nc(Cc3c(Cl)cccc3Cl)nc(NN)n2)cc1`, the half-inhibitory concentration (IC50) in test [2] worked out at 5830 nM; in test [3], 610 nM; in test [4] it was 7320 nM; in test [6], 5830 nM; in test [7], 1740 nM.

Turning to `Cc1ccc(C)c(Cc2nc(N)nc(Nc3ccc(C#N)cc3)n2)c1`, the IC50 in test [2] was 5860 nM; in test [3], 3.1 nM; in test [4], 1030 nM; in test [6], 1570 nM; in test [7], 273 nM.

With `N#Cc1ccc(Nc2nc(N)nc(Oc3c(F)cc(F)cc3F)n2)cc1`, the 50% inhibitory concentration (IC50) in test [2] worked out at 216 nM; in test [3] it was 51 nM; in test [4], 8950 nM; in test [6], 3650 nM; in test [7] it was 87 nM.

On to `Cc1cc(C)c(Sc2ncnc(Nc3ccc(C#N)cc3)n2)c(C)c1`, for which the IC50 in test [2] is 32 nM; in test [3], 2 nM; in test [4] it was 20 nM; in the test on MT4 [5] it was over 10000 nM; in test [6], 13 nM; in test [7] it was 3 nM.

With `Cc1cc([N+](=O)[O-])cc(C)c1Oc1nc(N)nc(Nc2ccc(C#N)cc2)n1`, the IC50 in test [2] was determined as 330 nM; in test [3], 2 nM; in test [4], 123 nM; in test [6] it was 57 nM; in test [7], 8 nM.

Take `Cc1cccc(C)c1Cc1nc(N)nc(Nc2ccc(C#N)cc2)n1`: the concentration for half-maximal inhibition (IC50) in test [2] worked out at 1460 nM; in test [3] it was 1.2 nM; in test [4] it was 105 nM; in test [6], 225 nM; in test [7], 42 nM.

Regarding `Cc1cc(C)c(Sc2nc(N)nc(Nc3ccc(C#N)cc3)n2)c(C)c1`, the half-inhibitory concentration (IC50) in test [2] was 64 nM; in test [3] it was 2.9 nM; in test [4], 36 nM; in test [6], 19 nM; in test [7] it was 6 nM.

Turning to `CNc1nc(Cc2c(Cl)cccc2Cl)nc(Nc2ccc(C#N)cc2)n1`, the IC50 in test [2] worked out at 1160 nM; in test [3] it was 7 nM; in test [4], 1020 nM; in test [6], 440 nM; in test [7] it was 137 nM.

Consider `Cc1cc(I)cc(C)c1Oc1nc(N)nc(Nc2ccc(C#N)cc2)n1`, for which the 50% inhibitory concentration (IC50) in test [2] was found to be 204 nM; in test [3] it was 30 nM; in test [4], 75 nM; in test [6], 68 nM; in test [7] it was 10 nM.

Regarding `CCCONc1nc(Cc2c(Cl)cccc2Cl)nc(Nc2ccc(C#N)cc2)n1`, the IC50 in the test on MT4 [8] was found to be 100000 nM.

Consider `Cc1cc(C)cc(Cc2nc(N)nc(Nc3ccc(C#N)cc3)n2)c1`, for which the half-maximal inhibitory concentration (IC50) was 77900 nM in test [2]; 91 nM in test [3]; over 100000 nM in test [4]; 6370 nM in test [6]; 5080 nM in test [7].

Take `N#Cc1ccc(Nc2nc(N)nc(Cc3c(Cl)cccc3Cl)n2)cc1`: the 50% inhibitory concentration (IC50) in test [2] was 398 nM; in test [3], 6.3 nM; in test [4], 316 nM; in test [6], 200 nM; in test [7], 40 nM.

With `CCOC(=O)Nc1nc(Cc2c(Cl)cccc2Cl)nc(Nc2ccc(C#N)cc2)n1`, the 50% inhibitory concentration (IC50) stood at 1640 nM in test [2]; 12 nM in test [3]; 1730 nM in test [4]; 1320 nM in test [6]; 548 nM in test [7].

Regarding `Cc1cc(C)c(Oc2ncnc(Nc3ccc(C#N)cc3)n2)c(C)c1`, the IC50 in test [2] was 20 nM; in test [3], 0.6 nM; in test [4] it was 63 nM; in the test on MT4 [5], over 10000 nM; in test [6], 20 nM; in test [7], 3 nM.

As for `Cc1cc(C)c(C)c(Cc2nc(N)nc(Nc3ccc(C#N)cc3)n2)c1C`, the concentration for half-maximal inhibition (IC50) in test [2] came to 6700 nM; in test [3], 4.6 nM; in test [4], 367 nM; in test [6], 1190 nM; in test [7], 85 nM.

As to `N#Cc1ccc(Nc2nc(Cc3c(Cl)cccc3Cl)nc(NO)n2)cc1`, the IC50 in test [2] turned out to be 107 nM; in test [3], 2.4 nM; in test [4] it was 26 nM; in test [6], 38 nM; in test [7] it was 13 nM.

Consider `N#Cc1ccc(Nc2nc(N)nc(Oc3c(Cl)cccc3Cl)n2)cc1`, for which the IC50 in test [2] was found to be 384 nM; in test [3] it was 3.1 nM; in test [4], 4570 nM; in test [6], 279 nM; in test [7], 82 nM.

For `Cc1cc(Br)cc(Cl)c1Oc1nc(N)nc(Nc2ccc(C#N)cc2)n1`, the IC50 in test [2] was 59 nM; in test [3], 2.1 nM; in test [4], 103 nM; in test [6], 35 nM; in test [7], 6 nM.

For the compound `N#Cc1ccc(Nc2nc(N)nc(Oc3c(Cl)cc(F)cc3Cl)n2)cc1`, the IC50 in test [2] was 706 nM; in test [3], 7.3 nM; in test [4], 1020 nM; in test [6], 259 nM; in test [7], 65 nM.

Regarding `CONc1nc(Cc2c(Cl)cccc2Cl)nc(Nc2ccc(C#N)cc2)n1`, the IC50 worked out at 1380 nM in test [2]; 6.2 nM in test [3]; 804 nM in test [4]; 62.8 nM in test [6]; 82 nM in test [7].

Consider `N#Cc1ccc(Nc2nc(N)nc(Cc3c(Cl)ccc(Cl)c3Cl)n2)cc1`, for which the IC50 in test [2] stood at 416 nM; in test [3] it was 3 nM; in test [4] it was 265 nM; in test [6], 286 nM; in test [7], 63 nM.

As to `N#Cc1ccc(Nc2nc(N)nc(Oc3c(Br)cc(Br)cc3Br)n2)cc1`, the half-inhibitory concentration (IC50) worked out at 131 nM in test [2]; 5.4 nM in test [3]; 619 nM in test [4]; 61 nM in test [6]; 17 nM in test [7].

For `CC(=O)Nc1nc(Cc2c(Cl)cccc2Cl)nc(Nc2ccc(C#N)cc2)n1`, the IC50 in test [2] amounted to 100000 nM; in test [3], 16 nM; in test [4] it was 158 nM; in test [6] it was 100000 nM; in test [7], 40 nM.

For `CCONc1nc(Cc2c(Cl)cccc2Cl)nc(Nc2ccc(C#N)cc2)n1`, half-maximal inhibition in the test on MT4 [8] (IC50) required 24.6 nM.

On to `N#Cc1ccc(Nc2nc(N)nc(Cc3ccc(Cl)cc3Cl)n2)cc1`, for which the concentration for half-maximal inhibition (IC50) in test [2] is 2100 nM; in test [3], 14 nM; in test [4] it was 2320 nM; in test [6], 791 nM; in test [7], 274 nM.

The IC50 is the concentration that gives 50% inhibition. A lower IC50 goes with greater potency.
